Experimental data taken from patent US20260216093A1, “COMPOSITIONS AND METHODS FOR ENHANCED DRUG LOADING INTO LIPID-BASED CARRIERS” (UNIVERSITY OF NOTRE DAME DU LAC, priority 2023, published 2026).

Columns and labels:
[1] = test system: cervical carcinoma cells (Hela); experiment: CCK-8 cell proliferation assay with Exo-Dox; assay type: cell-based, human; details: 24 h
Experimental: (§1) Cell viability was assessed using a Cell Counting Kit-8 (CCK-8 assay, Enzo). In brief, 3T3 and HepG2 cells were seeded into a 96-well flat culture plate (Corning). After being cultured overnight, the cells were washed with FBS-free EMEM and incubated with a specific concentration of sEV and exosomal relative in FBS-free medium at 37° C. for 12, 24, 36, or 48 h. The cells were then washed three times with sterilized PBS and incubated with fresh medium containing 10% FBS overnight. The cells were then washed with PBS, and FBS-free EMEM […] before adding assay reagent. After incubation for 20 min at 37° C., the cell proliferation and cytotoxicity were measured by absorbance at 460 nm. The background was measured by 3T3 and HepG2 cells cultured in FBS-free EMEM only.
(§2) The ability of Exo-Dox to inhibit cancer cell proliferation in vitro was then analyzed. Human hepatocellular carcinoma cells (HepG2) and cervical carcinoma cells (Hela) were treated with Exo-Dox for 24 h, while cells without treatment, treated with control sEVs, and D-Cys-GQDs mixed with free Dox are negative controls. Cell viability of all samples was measured by CCK-8 assay. […] Dox-loaded sEVs by sonication method were not included in the cell viability tests due to low yield of loaded sEVs that was caused by the damage of physical structure of sEVs by sonication (FIG. 17A-B).

[2] = test system: Human hepatocellular carcinoma cells (HepG2); experiment: CCK-8 cell proliferation assay with Exo-Dox; assay type: cell-based; details: 24 h
Experimental: as §1, §2

tau fibrils = tau fibrils (Homo sapiens, UniProt P10636); experiment: Tau biosensor seeding (propagation) assay; assay type: cell-based; details: inhibitors added 1 h after tau fibrils; D-GQDs 0.1-0.8 μM, Qal:D-GQDs 10:1, 6:1, 3:1; bare Qal 1.5 μM to 9 μM
Experimental: To study the effect of Qal-D-GQD-Exo on tau propagation, a tau biosensor seeding assay (FIG. 35) was used to investigate whether the Qal-D-GQD-Exo could block the cellular transmission of exogeneous mature tau fibrils using three different ratios of Qal to D-GQDs (10:1, 6:1, and 3:1) and concentrations of D-GQDs at 0.8, 0.4, 0.2, and 0.1 μM.

Chain of tau fibrils (P10636 whole entry): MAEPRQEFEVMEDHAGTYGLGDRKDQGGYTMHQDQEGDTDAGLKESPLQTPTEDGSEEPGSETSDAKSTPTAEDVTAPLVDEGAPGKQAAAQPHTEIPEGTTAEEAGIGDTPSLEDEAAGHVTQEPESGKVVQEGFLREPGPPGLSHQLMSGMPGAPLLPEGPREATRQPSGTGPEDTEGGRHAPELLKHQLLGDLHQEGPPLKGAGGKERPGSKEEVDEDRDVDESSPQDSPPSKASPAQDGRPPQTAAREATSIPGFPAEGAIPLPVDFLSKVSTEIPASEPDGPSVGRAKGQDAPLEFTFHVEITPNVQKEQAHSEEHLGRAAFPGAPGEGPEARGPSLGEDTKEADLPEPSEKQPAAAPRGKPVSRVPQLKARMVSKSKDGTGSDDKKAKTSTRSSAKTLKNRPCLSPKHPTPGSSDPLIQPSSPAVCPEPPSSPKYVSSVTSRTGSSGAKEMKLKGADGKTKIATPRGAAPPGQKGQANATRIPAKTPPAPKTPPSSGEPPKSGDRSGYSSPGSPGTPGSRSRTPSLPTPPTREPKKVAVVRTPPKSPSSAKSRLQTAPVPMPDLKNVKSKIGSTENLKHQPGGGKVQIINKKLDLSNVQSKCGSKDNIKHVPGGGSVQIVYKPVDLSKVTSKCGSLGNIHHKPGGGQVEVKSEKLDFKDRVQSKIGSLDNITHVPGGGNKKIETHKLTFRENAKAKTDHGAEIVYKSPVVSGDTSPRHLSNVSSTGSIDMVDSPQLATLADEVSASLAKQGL

| inhibition of intracellular tau aggregation, at most (tau fibrils) | Compound | inhibition of cell proliferation [1] | inhibition of cell proliferation [2] |
| --- | --- | --- | --- |
|  | COc1cccc2c1C(=O)c1c(O)c3c(c(O)c1C2=O)C[C@@](O)(C(=O)CO)C[C@@H]3O[C@H]1C[C@H](N)[C@H](O)[C@H](C)O1 [free Dox, Doxorubicin] | 27.7±5.0% | 28.3±5.2% |
| did not show any inhibitory efficiency | Qal: tau-specific N-amino peptide (NAP), amino acid sequence CGTHKLTFRASHAVQIVYKGC (SEQ ID NO: 2) |  |  |
